Source: patent US20150307520A1, “NOVEL HETEROARYL AND HETEROCYCLE COMPOUNDS, COMPOSITIONS AND METHODS THEREOF” (HUTCHISON MEDIPHARMA LIMITED, priority 2012, published 2015)

Assays:
Type in all cases: biochemical
p110β/p85α = p110β/p85α (Homo sapiens, UniProt P42338); experiment: Transcreener KINASE Assay, kinase inhibition of p110β/p85α; conditions: for PI3Kβ IH % @ 1 uM: 1 uM test compound; for IC50: read-out: PI3Kβ IC50
How it was run: (§1)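 ADP production was read by fluorescence polarization immunoassay (60 min detection step) after an 80 min room-temperature reaction of p110/p85α enzyme, compound in 2% DMSO, and PIP2/ATP solution (30 uM/10 uM as added) in HEPES buffer with MgCl2 and DTT. IC50s came from inhibition versus the DMSO control.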

p110δ/p85α = p110δ/p85α (Homo sapiens, UniProt O00329); experiment: Transcreener KINASE Assay, kinase inhibition of p110δ/p85α; conditions: for PI3Kδ IH % @ 1 uM: 1 uM test compound; for IC50: read-out: PI3Kδ IC50
p110δ/p85α, sequence (O00329 whole entry): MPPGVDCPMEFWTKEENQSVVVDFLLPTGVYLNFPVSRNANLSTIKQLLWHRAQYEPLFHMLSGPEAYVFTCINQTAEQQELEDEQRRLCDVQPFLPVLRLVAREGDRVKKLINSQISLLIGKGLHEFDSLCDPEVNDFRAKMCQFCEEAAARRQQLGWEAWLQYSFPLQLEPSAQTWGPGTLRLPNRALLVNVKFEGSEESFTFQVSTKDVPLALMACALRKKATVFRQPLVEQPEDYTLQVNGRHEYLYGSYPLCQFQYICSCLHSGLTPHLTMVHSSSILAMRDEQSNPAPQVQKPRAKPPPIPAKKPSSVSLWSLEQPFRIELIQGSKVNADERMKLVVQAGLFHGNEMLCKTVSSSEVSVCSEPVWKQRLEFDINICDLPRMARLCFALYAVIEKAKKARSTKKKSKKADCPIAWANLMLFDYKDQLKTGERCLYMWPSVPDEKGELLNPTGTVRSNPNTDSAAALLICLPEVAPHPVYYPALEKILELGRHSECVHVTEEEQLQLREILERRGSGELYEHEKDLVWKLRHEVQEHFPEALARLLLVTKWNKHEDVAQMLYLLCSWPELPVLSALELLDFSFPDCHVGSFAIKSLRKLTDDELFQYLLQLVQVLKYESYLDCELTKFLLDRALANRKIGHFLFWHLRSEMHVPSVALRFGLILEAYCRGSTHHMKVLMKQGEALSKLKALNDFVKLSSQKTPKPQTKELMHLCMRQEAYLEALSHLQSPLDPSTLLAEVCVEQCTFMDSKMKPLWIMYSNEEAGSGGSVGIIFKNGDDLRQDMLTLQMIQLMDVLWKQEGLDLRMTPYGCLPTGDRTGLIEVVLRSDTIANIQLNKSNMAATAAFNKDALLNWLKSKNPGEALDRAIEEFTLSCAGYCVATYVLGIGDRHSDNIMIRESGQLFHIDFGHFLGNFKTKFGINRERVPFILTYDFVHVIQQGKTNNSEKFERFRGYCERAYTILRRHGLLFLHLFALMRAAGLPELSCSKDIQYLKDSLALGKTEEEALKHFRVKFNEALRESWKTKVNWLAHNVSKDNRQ
p110δ/p85α, sequence (P27986 whole entry partner): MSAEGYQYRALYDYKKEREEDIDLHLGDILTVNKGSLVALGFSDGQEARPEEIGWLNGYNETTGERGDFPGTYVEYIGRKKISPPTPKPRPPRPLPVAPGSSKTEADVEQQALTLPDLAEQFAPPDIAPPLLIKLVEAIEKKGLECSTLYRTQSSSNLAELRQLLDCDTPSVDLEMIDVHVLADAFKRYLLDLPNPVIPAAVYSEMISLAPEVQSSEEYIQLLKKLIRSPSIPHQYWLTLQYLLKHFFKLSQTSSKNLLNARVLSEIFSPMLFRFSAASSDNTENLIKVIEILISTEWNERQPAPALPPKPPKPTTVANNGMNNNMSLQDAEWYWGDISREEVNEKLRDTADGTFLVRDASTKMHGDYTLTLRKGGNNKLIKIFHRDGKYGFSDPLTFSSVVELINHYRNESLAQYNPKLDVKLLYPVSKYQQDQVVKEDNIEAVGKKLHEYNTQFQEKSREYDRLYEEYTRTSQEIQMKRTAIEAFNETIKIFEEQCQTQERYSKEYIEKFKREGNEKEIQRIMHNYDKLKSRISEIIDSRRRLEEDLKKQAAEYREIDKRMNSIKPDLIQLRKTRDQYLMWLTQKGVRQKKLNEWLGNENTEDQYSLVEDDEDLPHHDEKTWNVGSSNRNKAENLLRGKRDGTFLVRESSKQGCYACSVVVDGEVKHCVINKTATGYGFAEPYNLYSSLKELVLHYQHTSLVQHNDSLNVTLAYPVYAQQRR
How it was run: as §1

p110γ = p110γ (Homo sapiens, UniProt P48736); experiment: Transcreener KINASE Assay, kinase inhibition of p110γ; conditions: for PI3Kγ IH % @ 1 uM: 1 uM test compound; for IC50: read-out: PI3Kγ IC50
p110γ, sequence (P48736 whole entry, canonical isoform): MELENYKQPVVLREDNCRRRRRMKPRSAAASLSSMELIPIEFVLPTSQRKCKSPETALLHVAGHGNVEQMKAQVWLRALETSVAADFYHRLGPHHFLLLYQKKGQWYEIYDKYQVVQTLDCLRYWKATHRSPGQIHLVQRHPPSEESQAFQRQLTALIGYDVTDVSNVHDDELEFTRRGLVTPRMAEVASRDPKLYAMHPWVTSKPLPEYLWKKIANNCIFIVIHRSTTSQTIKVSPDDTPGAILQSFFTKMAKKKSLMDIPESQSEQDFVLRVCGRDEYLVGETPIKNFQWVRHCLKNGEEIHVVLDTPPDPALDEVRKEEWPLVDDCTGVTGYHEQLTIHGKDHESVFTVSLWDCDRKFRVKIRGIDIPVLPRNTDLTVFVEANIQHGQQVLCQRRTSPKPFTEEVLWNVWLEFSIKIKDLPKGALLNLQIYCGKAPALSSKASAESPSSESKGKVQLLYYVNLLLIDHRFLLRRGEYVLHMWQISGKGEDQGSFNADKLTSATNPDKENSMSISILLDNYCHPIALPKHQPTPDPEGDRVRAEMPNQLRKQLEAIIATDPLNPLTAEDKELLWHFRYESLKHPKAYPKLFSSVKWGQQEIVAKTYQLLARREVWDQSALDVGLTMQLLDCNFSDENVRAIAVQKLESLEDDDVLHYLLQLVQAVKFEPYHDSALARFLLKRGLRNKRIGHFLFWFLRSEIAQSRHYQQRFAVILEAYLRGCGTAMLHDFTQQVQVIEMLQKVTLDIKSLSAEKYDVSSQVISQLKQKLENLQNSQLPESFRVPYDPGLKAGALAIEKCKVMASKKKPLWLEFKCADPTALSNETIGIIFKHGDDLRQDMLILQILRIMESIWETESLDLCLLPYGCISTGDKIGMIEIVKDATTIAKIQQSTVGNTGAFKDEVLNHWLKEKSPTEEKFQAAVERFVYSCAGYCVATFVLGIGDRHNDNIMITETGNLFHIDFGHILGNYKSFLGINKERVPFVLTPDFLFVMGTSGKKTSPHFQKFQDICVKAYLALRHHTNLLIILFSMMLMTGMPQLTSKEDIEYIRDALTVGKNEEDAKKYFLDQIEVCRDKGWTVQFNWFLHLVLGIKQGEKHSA
How it was run: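 Recombinant PI3K isoforms (p85α complexes or p110γ alone) reacted 80 min at room temperature, then ADP detection mix added for 60 min. ADP formation read by far-red competitive fluorescence polarization immunoassay; IC50 by curve fitting.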

p110β/p85α, sequence (P42338 whole entry): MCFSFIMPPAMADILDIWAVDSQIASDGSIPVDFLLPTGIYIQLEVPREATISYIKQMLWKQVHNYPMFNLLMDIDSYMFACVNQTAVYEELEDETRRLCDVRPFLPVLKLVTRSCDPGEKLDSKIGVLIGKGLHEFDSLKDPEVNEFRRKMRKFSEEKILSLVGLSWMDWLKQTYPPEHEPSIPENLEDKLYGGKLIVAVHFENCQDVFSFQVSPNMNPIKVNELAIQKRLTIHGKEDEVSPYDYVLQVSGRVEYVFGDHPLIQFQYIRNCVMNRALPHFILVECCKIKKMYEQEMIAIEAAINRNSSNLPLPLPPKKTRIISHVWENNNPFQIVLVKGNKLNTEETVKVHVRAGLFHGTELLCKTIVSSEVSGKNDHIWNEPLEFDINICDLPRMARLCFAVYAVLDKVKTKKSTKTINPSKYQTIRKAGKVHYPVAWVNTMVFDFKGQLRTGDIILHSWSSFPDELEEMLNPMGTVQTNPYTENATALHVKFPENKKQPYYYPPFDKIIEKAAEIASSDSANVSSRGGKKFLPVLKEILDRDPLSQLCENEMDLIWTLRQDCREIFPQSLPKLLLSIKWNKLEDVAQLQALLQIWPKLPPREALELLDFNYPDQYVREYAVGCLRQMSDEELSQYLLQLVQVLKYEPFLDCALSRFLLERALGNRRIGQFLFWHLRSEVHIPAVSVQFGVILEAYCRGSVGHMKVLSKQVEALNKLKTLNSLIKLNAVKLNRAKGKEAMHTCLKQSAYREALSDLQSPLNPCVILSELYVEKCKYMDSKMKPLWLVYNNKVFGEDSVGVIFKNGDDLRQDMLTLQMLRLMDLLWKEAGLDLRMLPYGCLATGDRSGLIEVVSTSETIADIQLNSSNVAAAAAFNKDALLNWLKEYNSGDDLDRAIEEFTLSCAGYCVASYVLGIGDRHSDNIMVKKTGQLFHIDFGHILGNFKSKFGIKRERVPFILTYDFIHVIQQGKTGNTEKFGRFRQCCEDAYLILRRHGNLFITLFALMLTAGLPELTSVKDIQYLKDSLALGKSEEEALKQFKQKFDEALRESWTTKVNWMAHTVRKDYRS
p110β/p85α, sequence (P27986 2-724 partner): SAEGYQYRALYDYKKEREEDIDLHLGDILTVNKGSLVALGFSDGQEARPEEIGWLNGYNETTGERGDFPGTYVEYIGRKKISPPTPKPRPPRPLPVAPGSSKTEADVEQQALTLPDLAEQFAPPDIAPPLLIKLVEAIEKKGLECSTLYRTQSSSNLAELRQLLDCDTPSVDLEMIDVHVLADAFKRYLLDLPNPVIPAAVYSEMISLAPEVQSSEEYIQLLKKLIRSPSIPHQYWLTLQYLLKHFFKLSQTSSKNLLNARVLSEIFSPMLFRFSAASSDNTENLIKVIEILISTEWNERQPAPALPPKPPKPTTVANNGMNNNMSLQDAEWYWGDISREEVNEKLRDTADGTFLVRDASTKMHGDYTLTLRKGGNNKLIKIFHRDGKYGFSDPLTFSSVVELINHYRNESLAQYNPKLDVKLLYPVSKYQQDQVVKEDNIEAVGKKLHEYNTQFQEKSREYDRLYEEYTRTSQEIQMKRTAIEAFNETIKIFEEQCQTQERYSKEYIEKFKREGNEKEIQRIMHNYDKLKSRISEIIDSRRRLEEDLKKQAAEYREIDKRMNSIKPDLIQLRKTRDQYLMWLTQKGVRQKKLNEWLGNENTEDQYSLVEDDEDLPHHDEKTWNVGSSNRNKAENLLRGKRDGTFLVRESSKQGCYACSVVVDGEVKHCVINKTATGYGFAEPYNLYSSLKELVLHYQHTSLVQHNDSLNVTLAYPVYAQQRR

Structure (SMILES)	PI3Kβ IH % @ 1 uM (p110β/p85α) [%]	PI3Kδ IH % @ 1 uM (p110δ/p85α) [%]	IC50 (p110δ/p85α) [nM]	PI3Kγ IH % @ 1 uM (p110γ) [%]	IC50 (p110γ) [nM]	IC50 (p110β/p85α) [nM]
Nc1nc2c(c(N3CCC[C@H]3c3nn4ccc(Cl)c4c(=O)n3-c3ccccc3)n1)CCC2 [Compound 246]	2.5	84.6	562	80.8	696	–
Nc1nc2c(c(N3CC[C@H]3c3nn4ccc(Cl)c4c(=O)n3-c3ccccc3)n1)CCC2 [Compound 247]	4.8	53.0	–	73.0	–	–
Nc1nc2c(c(N3CC[C@H]3c3nn4ccc(F)c4c(=O)n3-c3ccccc3)n1)C(=O)CCN2 [Compound 248]	−10.7	96.2	9	98.0	9	–
Nc1nc2c(c(N3CCC[C@H]3c3nn4ccc(F)c4c(=O)n3-c3ccccc3)n1)C(=O)CCN2 [Compound 249]	24.8	99.3	8	98.0	29	–
Nc1nc2c(c(N3C[C@@H](F)C[C@H]3c3nn4ccc(F)c4c(=O)n3-c3ccccc3)n1)C(=O)CCN2 [Compound 250]	33.4	99.1	22	95.8	45	–
CN(C)CCn1c([C@@H]2CCCN2c2ncnc3[nH]cnc23)nn2ccc(Cl)c2c1=O [Compound 251]	50.4	88.3	102	56.3	–	–
CN(C)CCn1c([C@@H]2CCCN2c2ncnc3[nH]cc(C#N)c23)nn2ccc(Cl)c2c1=O [Compound 252]	56.6	97.0	7	68.9	–	–
O=c1c2c(Cl)ccn2nc([C@@H]2CCCN2c2ncnc3[nH]cnc23)n1CCN1CCOCC1 [Compound 253]	45.1	92.8	52	69.0	553	–
N#Cc1c[nH]c2ncnc(N3CCC[C@H]3c3nn4ccc(Cl)c4c(=O)n3CCN3CCOCC3)c12 [Compound 255]	72.6	>100	4	>100	73	304
N#Cc1c[nH]c2ncnc(N3CCC[C@H]3c3nn4ccc(Cl)c4c(=O)n3CC3CC3)c12 [Compound 257]	82.4	>100	2	>100	18	80
N#Cc1c[nH]c2ncnc(N3CCC[C@H]3c3nn4ccc(Cl)c4c(=O)n3CC3CCCCC3)c12 [Compound 258]	10.4	94.7	76	73.0	467	–
CC(C)Cn1c([C@@H]2CCN2c2ncnc3[nH]cc(C#N)c23)nn2ccc(Cl)c2c1=O [Compound 259]	41.5	98.8	27	89.5	170	–
CC(C)Cn1c([C@@H]2CCN2c2nc(N)ncc2C#N)nn2ccc(Cl)c2c1=O [Compound 260]	39.6	98.0	40	90.9	163	–
N#Cc1c[nH]c2ncnc(N3C[C@@H](O)C[C@H]3c3nn4ccc(Cl)c4c(=O)n3-c3cccc(F)c3)c12 [Compound 261]	>100	>100	1	>100	3	31
O=c1c2c(Cl)ccn2nc([C@@H]2C[C@H](O)CN2c2ncnc3[nH]cnc23)n1-c1ccccc1 [Compound 262]	88.8	97.1	–	93.4	11	18
CO[C@H]1C[C@@H](c2nn3ccc(Cl)c3c(=O)n2-c2ccccc2)N(c2ncnc3[nH]cnc23)C1 [Compound 263]	74.5	>100	4	>100	17	118
COCCO[C@H]1C[C@@H](c2nn3ccc(Cl)c3c(=O)n2-c2ccccc2)N(c2ncnc3[nH]cc(C#N)c23)C1 [Compound 264, 4-((2S,4S)-2-(5-chloro-4-oxo-3-phenyl-3,4-dihydropyrrolo[2,1-f][1,2,4]triazin-2-yl)-4-(2-methoxyethoxyl)pyrrolidin-1-yl)-7H-pyrrolo[2,3-d]pyrimidine-5-carbonitrile]	92.8	>100	1	>100	3	69
O=c1c2c(Cl)ccn2nc([C@@H]2C[C@H](OCCO)CN2c2ncnc3[nH]cnc23)n1-c1ccccc1 [Compound 265]	68.6	>100	1	>100	11	300
COCCO[C@H]1C[C@@H](c2nn3ccc(Cl)c3c(=O)n2-c2ccccc2)N(c2ncnc3[nH]cnc23)C1 [Compound 266]	49.9	>100	6	>100	21	–
C[S+]([O-])c1c[nH]c2ncnc(N3C[C@@H](F)C[C@H]3c3nn4ccc(Cl)c4c(=O)n3-c3ccccc3)c12 (stereo partly shown) [Compound 267]	73.2	98.9	3	>100	13	206
